Results from patent US20160250285A1, “NEUROPROTECTIVE PEPTIDES” (priority 2013, published 2016).
Entries after “also recorded” stand apart in the source; their conditions may differ.

Columns and labels:
[1] = test system: primary cortical neuronal cultures; assay: In vitro ischemia / oxygen-glucose deprivation (OGD) model, neurons; type: cell-based, rat; conditions: for neuroprotection when added for 15 minutes after OGD: FIGS. 31, 20, 22, 1 μM and 5 μM in FIG. 31; for neuroprotection when added post-in vitro ischemia/OGD: added after anaerobic incubation until experiment end (FIGS. 3b, 16, 17)
Protocol: Establishment of cortical cultures was as previously described (Meloni et al. 2001). Briefly, cortical tissue from E18-E19 Sprague-Dawley rats was dissociated in Dulbecco's modified Eagle medium (DMEM; Invitrogen, Australia) supplemented with 1.3 mM L-cysteine, 0.9 mM NaHCOa, 10 units/ml papain (Sigma, USA) and 50 units/ml DNase (Sigma) and washed in cold DMEM/10% horse serum. Neurons were resuspended in Neurobasal (Invitrogen) containing 2% B27 supplement (B27; Invitrogen). Before seeding, 96-well sized glass wells (6 mm diameter, ProTech, Australia) or 96-well plastic plates (ProSciTech, Australia) were coated with poly-D-lysine overnight (50 ml/well: 50 mg/mL; 70-150 K, Sigma). Excess poly-D-lysine solution was then removed and replaced with Neurobasal (containing 2% B27; 4% fetal bovine serum; 1% horse serum; 62.5 mM glutamate; 25 mM 2-mercaptoethanol; and 30 mg/mL streptomycin and 30 mg/mL penicillin). Neurons were plated to obtain ≈10,000 viable neurons for each well on day in vitro 11-12. Neuronal cultures were maintained in a CO2 incubator (5% CO2, 95% air balance, 98% humidity) at 37° C. On day in vitro 4 one third of the culture medium was removed and replaced with fresh Neurobasal/2% B27 containing the mitotic inhibitor, cytosine arabinofuraNOside (1 mM final concentration; Sigma). On day in vitro 8 one half of the culture medium was replaced with Neurobasal/2% B27. Cultures were used on day in vitro 11 or 12 after which time they routinely consist of >97% neurons and 1-3% astrocytes (Meloni et al. 2001).
The in vitro ischemia model used for primary cortical neuronal cultures was performed as previously described (Meloni et at 2011) Briefly, culture media was removed from wells (glass 96-well plate format) and washed with 315 μl of glucose free balanced salt solution (BSS; mM: 116 NaCl, 5.4 KCl, 1.8 CaCl2, 0.8 MgSO4, 1 NaH2PO4; pH 6.9) before the addition of 60 μl BSS containing cell penetrating or control peptides (see Table 1). A non-peptide positive control consisting of the glutamate receptor blockers (5 μM MK801/5 μM 6-cyano-7-nitroquinoxaline: MK801/CNQX) was also included. In vitro ischemia was initiated by placing wells in an anaerobic incubator (Don Whitely Scientific, England; atmosphere of 5% CO2, 10% H2 and 85% argon, 98% humidity) at 37° C. for 55 minutes. Upon removal from the anaerobic incubator, 60 μl of Neurobasal/2% N2 supplement was added to the wells and cultures incubated for a further 24 hours at 37° C. in the CO2 incubator. Control cultures received the same BSS wash procedures and media additions as ischemic treated cultures before incubation at 37° C. in the CO2 incubator.
Control cultures underwent the same BSS wash procedures and media additions as OGD treated cultures.
Twenty-four hours after insult, neuronal cultures were examined by light microscopy for qualitative assessment of neuronal cell viability. Neuronal viability was quantitatively measured by 3-(4,5,dimethyliazol-2-yl)-5-(3-carboxymethoxy-phenyl)-2-(4-sulfophenyl)-2H-tetrazolium salt (MTS) assay (Promega, Australia). The MTS assay measures the cellular conversion of the tetrazolium salt to a water-soluble brown formazan salt, which is detected spectrophotometrically at 490 nm. MTS absorbance data were converted to reflect proportional cell viability relative to both the untreated and treated controls, with the untreated control taken as 100% viability, and presented as mean±SEM. […] Viability data was analysed by ANOVA, followed by post-hoc Fischer's PLSD test, with P<0.05 values considered statistically significant. Four- to six wells were used in all assays.

[2] = test system: permanent middle cerebral artery occlusion (MCAO) stroke model; assay: Rat permanent middle cerebral artery occlusion (MCAO) stroke model; type: in vivo; conditions: for neuroprotective activity in vivo: 1 μmol/kg intravenously 30 min post-MCAO
Protocol: Administration of peptide (DR9: rrrrrrrrr-NH2; R12, R15, R18, protamine sulphate; protamine) or vehicle (saline: 0.9% NaCl) treatment solution was performed at 30 min post-MCAO. The peptide treatment comprised DR9 in saline (600 μl) to provide an intravenous loading dose of 1 μmol/kg or 1000 nmol/kg given over 5-6 min via the right jugular vein.
This study was approved by the Animal Ethics Committee of the University of Western Australia. Male Sprague Dawley rats weighing 270 g to 350 g were kept under controlled housing conditions with 12 hour light-dark cycle with free access to food and water. Experimental animals were fasted overnight and subjected to permanent middle cerebral artery occlusion (MCAO) as follows.
Anaesthesia was induced with 4% isoflurane and a 2:1 mix of N2O and O2 via mask. Anaesthesia was maintained at 1.7-2% isoflurane. Cerebral blood flow (CBF) was monitored continuously using laser Doppler flowmetry (Blood FlowMeter, AD Instruments, Sydney, Australia). The probe was located 1 mm caudal and 4 mm lateral (right) to the bregma. A cannula was inserted in the right femoral artery to continuously monitor blood pressure and to provide samples for blood glucose and blood gas readings. Blood glucose was measured using a glucometer (MediSense Products, Abbott Laboratories, Bedford, Mass., USA) and blood gases were measured using a blood gas analyser (ABL5, Radiometer, Copenhagen, Denmark). Blood pressure was maintained at 80-100 mmHg. During surgery, rectal temperature was maintained at 37±0.5° C. and warming applied with a fan heater when necessary. For intravenous infusions, a length of PVC line primed with heparinised saline was tied in place in the right jugular vein, then externalised through a dorsal mid-scapular incision to a tether/swivel system (Instech Laboratories, Philadelphia, USA) designed to permit free movement.
The right common carotid artery (CCA) was exposed via a ventral neck incision. […] The isolated section of the ECA was ligated and cauterised to create a stump. The carotid body was removed and the pterygopalatine artery was ligated. A 4-0 nylon monofilament with a 0.39 mm diameter silicone tip (Doccol, Redlands, Calif., USA) was inserted through the ECA stump into the CCA and advanced rostrally into the internal carotid artery (ICA) until the laser Doppler flowmetry recorded a >30% decrease from baseline of cerebral blood flow. The monofilament was secured in two places (at the base of the ECA stump and on the ICA) for the remainder of the experiment. Animals were given post-operative analgesia consisting of pethidine (3 mg/kg intramuscular) and bupivacaine (1.5 mg/kg subcutaneously) at head and leg incision sites.
Post-surgery animals were allowed to recover in a climate-controlled chamber and their core body temperature monitored and maintained at 37±0.5° C. by a cooling/heating fan when required for 3-4 hours.
Animals were sacrificed 24 hours post-MCAO with intra-peritoneal injections of sodium pentobarbitone (900 mg/kg). […] Slices were scanned and images were analysed by an operator blind to treatment status using ImageJ 3rd edition (NIH, USA). The total infarct volume was determined by adding the areas of infarcted tissue on both sides of the 2 mm sections. These measured areas were multiplied by half slice thickness (1 mm), and corrected for cerebral oedema by multiplying the ratio of affected to normal hemisphere areas. […]

Row | Compound | efficacy at higher concentrations, added post-in vitro ischemia ([1]; FIG. 3b) | neuroprotection, peptide for 10 minutes, 1 to 3 hours prior to OGD ([1]; FIG. 32) | neuroprotection when added for 15 minutes after OGD [1] | neuroprotection when added post-in vitro ischemia/OGD [1] | reduction of infarct volume (brain damage) ([2]; 1 μmol/kg IV 30 min post-MCAO, infarct volume 24 h post-MCAO (FIGS. 5, 27)) | neuroprotective activity in vivo [2] | IC50 ([1]; Table 3, from FIG. 3a, peptide during ischemia and at 50% dose after, viability 24 h, MTS, read-out: IC50: In vitro ischemia model)
1 | H-RRRRRRRRRRRRRRRRRR-OH [Peptide R18] | reduced efficacy | effective | Neuroprotection is displayed | displayed neuroprotective effects; also recorded: effective | approximately 20% | possessed neuroprotective activity in vivo | 
2 | N=C(N)NCCC[C@H](NC(=O)[C@H](CCCNC(=N)N)NC(=O)[C@H](CCCNC(=N)N)NC(=O)[C@H](CCCNC(=N)N)NC(=O)[C@H](CCCNC(=N)N)NC(=O)[C@H](CCCNC(=N)N)NC(=O)[C@H](CCCNC(=N)N)NC(=O)[C@H](CCCNC(=N)N)NC(=O)[C@@H](N)CCCNC(=N)N)C(=O)O [Peptide R9] |  |  | not | displayed neuroprotective effects; also recorded: effective |  | possessed neuroprotective activity in vivo | 6 µM
